Assay [1] deals with Mycobacterium tuberculosis. Description: Antitubercular activity against multidrug-resistant Mycobacterium tuberculosis 12525 after 7 days by microplate alamar blue assay. It counts as functional. To be noted: Mycobacterium tuberculosis, 12525, 168 h. On the technique in general: Alamar Blue is a resazurin reagent that responds to reducing activity.
The subject of assay [2] is Mycobacterium tuberculosis. Briefly: Antitubercular activity against multidrug-resistant Mycobacterium tuberculosis 14231 after 7 days by microplate alamar blue assay. It counts as functional. To be noted: Mycobacterium tuberculosis, 14231, 168 h.

Values after ≈ are worked out from the molar mass of the structure shown.

Consider twelve compounds from ChEMBL document CHEMBL4033756, “Identification of Better Pharmacokinetic Benzothiazinone Derivatives as New Antitubercular Agents” (ACS Med Chem Lett, 2017).

In general, MIC90 refers to an inhibitory concentration at the 90% level, which refers to growth in some studies and to a panel of isolates in others. A high value points to weaker potency. Consider `COc1ccc(CN2CC3(CCN(c4nc(=O)c5cc(C(F)(F)F)cc([N+](=O)[O-])c5s4)CC3)C2)cc1`, for which the results for the MIC90 in assay [1] and in assay [2] were 0.119 µM (≈ 0.0619 µg/mL) and 0.123 µM (≈ 0.064 µg/mL), respectively.

Take `CO[C@H]1/C=C/O[C@@]2(C)Oc3c(C)c(O)c4c(O)c(c(/C=N/N5CCN(C)CC5)c(O)c4c3C2=O)NC(=O)/C(C)=C\C=C\[C@H](C)[C@H](O)[C@@H](C)[C@@H](O)[C@@H](C)[C@H](OC(C)=O)[C@@H]1C` [RIFAMPIN]: the MIC90 in assay [1] was 27.2 µM (≈ 22.4 µg/mL); in assay [2], greater than 48.6 µM.

Take `NNC(=O)c1ccncc1` [ISONIAZID]: the MIC90 in assay [1] was greater than 292 µM; in assay [2], 34.5 µM (≈ 4.73 µg/mL).

Consider `O=c1nc(N2CCC3(CCN(Cc4cc(F)cc(F)c4)CC3)CC2)sc2c([N+](=O)[O-])cc(C(F)(F)F)cc12`, for which the MIC90 in assay [1] and in assay [2] was less than 0.035 µM each time.

With `O=c1nc(N2CCC3(CCN(Cc4ccc(Br)cc4)CC3)CC2)sc2c([N+](=O)[O-])cc(C(F)(F)F)cc12`, the MIC90 in assay [1] was 0.092 µM (≈ 0.055 µg/mL); in assay [2], 0.086 µM (≈ 0.0514 µg/mL).

As to `O=c1nc(N2CCC3(CCN(Cc4ccc(C(F)(F)F)cc4)CC3)CC2)sc2c([N+](=O)[O-])cc(C(F)(F)F)cc12`, the MIC90 in assay [1] and in assay [2] was less than 0.035 µM throughout.

In the case of `O=c1nc(N2CCC3(CCN(Cc4cccc(F)c4)CC3)CC2)sc2c([N+](=O)[O-])cc(C(F)(F)F)cc12`, the MIC90 in assay [1] and in assay [2] was less than 0.035 µM each time.

As to `CCOC(=O)CN1CCC2(CCN(c3nc(=O)c4cc(C(F)(F)F)cc([N+](=O)[O-])c4s3)CC2)C1`, the MIC90 in assay [1] came to 0.08 µM (≈ 0.04 µg/mL); in assay [2] it was 0.06 µM (≈ 0.03 µg/mL).

Turning to `COc1ccc(CN2CCC3(CCN(c4nc(=O)c5cc(C(F)(F)F)cc([N+](=O)[O-])c5s4)CC3)C2)cc1`, the MIC90 worked out at 0.056 µM (≈ 0.0299 µg/mL) in assay [1] and 0.095 µM (≈ 0.0508 µg/mL) in assay [2].

`O=c1nc(N2CCN(CC3CCCCC3)CC2)sc2c([N+](=O)[O-])cc(C(F)(F)F)cc12` [MACOZINONE]: the MIC90 in assay [1] and in assay [2] was less than 0.035 µM in each case.

With `O=c1nc(N2CCC3(CCN(Cc4ccccc4)C3)CC2)sc2c([N+](=O)[O-])cc(C(F)(F)F)cc12`, the MIC90 in assay [1] and in assay [2] was less than 0.035 µM in each case.

As to `O=c1nc(N2CCC3(CCN(Cc4ccc(F)cc4)C3)CC2)sc2c([N+](=O)[O-])cc(C(F)(F)F)cc12`, the MIC90 in assay [1] is less than 0.035 µM; in assay [2], 0.034 µM (≈ 0.0178 µg/mL).
